According to ChEMBL document CHEMBL4359907, “Scalable and cost-effective tosylation-mediated synthesis of antifungal and fungal diagnostic 6″-Modified amphiphilic kanamycins” (Eur J Med Chem, 2019):
Active and inactive are the calls of the source. The rule behind the calls is not given here.

Tests used:
Staphylococcus aureus [1] = assay: Antibacterial activity against methicillin-resistant Staphylococcus aureus ATCC 33591 incubated for 18 hrs by two fold dilution method; assay type: functional; conditions: ATCC 33591, 18 h
Candida albicans [2] = assay: Antifungal activity against azole-resistant Candida albicans 64124 incubated for 24 to 36 hrs by two fold dilution method; assay type: functional
Candida albicans [3] = assay: Induction of membrane permeabilization in azole-susceptible Candida albicans MYA2876 at 1/4 times MIC incubated for 5 mins by phase contrast microscopic method; assay type: functional, organism-based
Candida albicans [4] = assay: Antifungal activity against azole-susceptible Candida albicans MYA2876 incubated for 24 to 36 hrs by two fold dilution method; assay type: functional
HeLa = assay: Cytotoxicity against human HeLa cells assessed as reduction in cell viability incubated for 24 hrs by MTT assay; assay type: cell-based
Escherichia coli [5] = assay: Antibacterial activity against Escherichia coli ATCC 25922 incubated for 18 hrs by two fold dilution method; assay type: functional; conditions: ATCC 25922, 18 h
Escherichia coli [6] = assay: Induction of membrane permeabilization in Escherichia coli ATCC 25922 at MIC incubated for 5 mins by phase contrast microscopic method; assay type: functional, organism-based
Staphylococcus aureus [7] = assay: Antibacterial activity against Staphylococcus aureus ATCC 25923 incubated for 18 hrs by two fold dilution method; assay type: functional; conditions: ATCC 25923, 18 h
Escherichia coli [8] = assay: Induction of membrane permeabilization in Escherichia coli ATCC 25922 at MIC incubated for 60 mins by phase contrast microscopic method; assay type: functional, organism-based
Candida albicans [9] = assay: Induction of membrane permeabilization in azole-resistant Candida albicans 64124 at 1/4 times MIC incubated for 5 mins by phase contrast microscopic method; assay type: functional, organism-based
Cryptococcus neoformans [10] = assay: Antifungal activity against Cryptococcus neoformans H99 incubated for 24 to 36 hrs by two fold dilution method; assay type: functional
Rhodotorula mucilaginosa = assay: Antifungal activity against Rhodotorula pilimanae ATCC 26423 incubated for 24 to 36 hrs by two fold dilution method; assay type: functional
Cryptococcus neoformans [11] = assay: Antifungal activity against Cryptococcus neoformans VR-54 incubated for 24 to 36 hrs by two fold dilution method; assay type: functional
Fusarium graminearum = assay: Antifungal activity against Fusarium graminearum B4-5A incubated for 24 to 36 hrs by two fold dilution method; assay type: functional
Staphylococcus aureus [12] = assay: Induction of membrane permeabilization in Staphylococcus aureus at 1/2 times MIC incubated for 5 mins by phase contrast microscopic method; assay type: functional, organism-based
Staphylococcus aureus [13] = assay: Induction of membrane permeabilization in Staphylococcus aureus at 1/2 times MIC incubated for 60 mins by phase contrast microscopic method; assay type: functional, organism-based
Staphylococcus aureus [14] = assay: Antibacterial activity against methicillin-resistant Staphylococcus aureus ATCC 43300 incubated for 18 hrs by two fold dilution method; assay type: functional; conditions: ATCC 43300, 18 h

With `Cl.Cl.Cl.Cl.NC[C@H]1O[C@H](O[C@H]2[C@H](O)[C@@H](O[C@H]3O[C@H](CNC(=O)c4ccccc4-c4c5ccc(=O)cc-5oc5cc(O)ccc45)[C@@H](O)[C@H](N)[C@H]3O)[C@H](N)C[C@@H]2N)[C@H](O)[C@@H](O)[C@@H]1O` the MIC (Staphylococcus aureus [1]) was > 256 µg/mL, the MIC (Candida albicans [2]) was 128 µg/mL and the Activity (Candida albicans [3]) was “Active”. For the same molecule, the MIC (Candida albicans [4]) was 256 µg/mL, the IC50 (HeLa) was > 100 µg/mL and the MIC (Escherichia coli [5]) was 32 µg/mL. For the same molecule, the Activity (Escherichia coli [6]) was “inactive”, the MIC (Staphylococcus aureus [7]) was 64 µg/mL and the Activity (Escherichia coli [8]) was “Active”. For the same molecule, the Activity (Candida albicans [9]) was “Active”, the MIC (Cryptococcus neoformans [10]) was 64 µg/mL and the MIC (Rhodotorula mucilaginosa) was 32 µg/mL. For the same molecule, the MIC (Cryptococcus neoformans [11]) was 64 µg/mL, the MIC (Fusarium graminearum) was 32 µg/mL and the Activity (Staphylococcus aureus [12]) was “inactive”. The Activity (Staphylococcus aureus [13]) was “Active” and the MIC (Staphylococcus aureus [14]) was > 256 µg/mL.
